The target in this experiment is T1, DCAF1 WD40 domain (residues 1077-1390) (Homo sapiens, UniProt Q9Y4B6).
T1 construct: DCAF1 WD40 domain (residues 1077-1390)
The experiment in a line: DCAF1 binding assay by SPR (Biacore 8K+), DCAF1-3 KD. Particulars: 25 °C, read-out: DCAF1-3 SPR (KD).

The values that follow come from patent US20260373266A1, “PROTEIN DEGRADERS AND USES THEREOF” (KYMERA THERAPEUTICS, INC., priority 2022, published 2026).

T1 sequence (Q9Y4B6 1077-1390): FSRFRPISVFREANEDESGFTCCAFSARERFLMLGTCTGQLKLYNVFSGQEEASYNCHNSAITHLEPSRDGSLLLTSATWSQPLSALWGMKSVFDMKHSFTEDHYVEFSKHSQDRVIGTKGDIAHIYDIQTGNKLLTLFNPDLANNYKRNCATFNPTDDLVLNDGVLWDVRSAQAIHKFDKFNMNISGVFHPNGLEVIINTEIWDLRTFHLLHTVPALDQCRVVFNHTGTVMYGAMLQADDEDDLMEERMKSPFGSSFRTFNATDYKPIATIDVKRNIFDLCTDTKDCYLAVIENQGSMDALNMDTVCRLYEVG

`NC(=O)C[C@H](NC(=O)c1cn[nH]c1-c1ccccc1F)c1cnsc1` [I-187]: the Kd is > 200 µM.

With `Cc1sc2c(c1C)C(c1ccc(Cl)cc1)=N[C@@H](CC(=O)NCCCCCCCCCCCCCCC1CCN(c3ccnc(N4CC[C@@H]5[C@H]4CCCN5c4cccc(F)c4)c3)CC1)c1nnc(C)n1-2` [I-902], the Kd was > 200 µM.

For `NCCCCCCCCCCCCCCCCCCCCC(=O)c1[nH]cc(C(=O)N[C@@H](CC(N)=O)c2cccc(Cl)c2)c1-c1ccccc1F` [I-670], the Kd is > 200 µM.

In the case of `Cc1c(F)ccc(F)c1-c1c(C(=O)N[C@@H](CC(N)=O)c2cccc(Cl)c2)c[nH]c1S(C)(=O)=O` [I-882], the Kd is < 10 µM.

Consider `Cc1ccc(Cl)cc1[C@@H](CC(N)=O)NC(=O)c1cn[nH]c1-c1ccccc1F` [I-584], for which the Kd was 10 to 100 µM.

With `Cc1c(F)ccc(F)c1-c1c(C(=O)N[C@@H](CC(=O)N(C)C)c2cccc(Cl)c2)c[nH]c1C(=O)COCCOCCOCCOCCOCCN` [I-822], the Kd is < 10 µM.

On to `c1ccc2c(N3CCC[C@@H](Nc4cc(N5CCOCC5)ccn4)C3)ncnc2c1` [I-67], for which the Kd was > 200 µM.

`NC(=O)C[C@](CC1CC1)(NC(=O)c1c[nH]nc1-c1ccccc1F)c1cccc(Cl)c1` [I-255]: the Kd is > 200 µM.

`Fc1cc2ccccc2c(N2CCC[C@@H](Nc3cc(N4CCOCC4)ccn3)C2)n1` [I-72]: the Kd was in the range of 100 to 200 µM.

Regarding `Cc1sc2c(c1C)C(c1ccc(Cl)cc1)=N[C@@H](CC(=O)NCCOCCOCCOCCOCCOCCn1ncc(C(=O)N[C@@H](CC(N)=O)c3cccc(Cl)c3)c1-c1ccccc1F)c1nnc(C)n1-2` [I-487], the Kd is > 200 µM.

`Fc1cccc(N2CCC[C@@H](Nc3cc(C4CCNCC4)ccn3)C2)c1` [I-93]: the Kd was > 200 µM.

In the case of `Fc1cccc(N2CCC[C@@H](Sc3cc(N4CCOCC4)ccn3)C2)c1` [I-113], the Kd is > 200 µM.

Turning to `NC(=O)C[C@H](NC(=O)c1cn[nH]c1-c1cc(CCC(=O)O)ccc1F)c1cccc(Cl)c1` [I-284], the Kd was 10 to 100 µM.

For `Fc1cccc(N2CCC[C@@H](Nc3cc(N4CCC5CCC4C5)ccn3)C2)c1` (some centres unmarked) [I-640], the Kd lay in the range of 10 to 100 µM.

For the compound `NCCCc1cccc(N2CCC[C@@H](Nc3cc(N4CCOCC4)ccn3)C2)c1` [I-867], the Kd fell in the range of 10 to 100 µM.

Consider `CS(=O)(=O)Cc1ccc(F)c(-c2[nH]ncc2C(=O)N[C@H](CC(N)=O)c2cccc(Cl)c2)c1` [I-532], for which the Kd is > 200 µM.

In the case of `Fc1cccc(N2CCC[C@@H](Nc3cc([C@@H]4CCCNC4)ccn3)C2)c1` [I-109], the Kd is > 200 µM.

Take `Fc1cccc(N2C[C@H](F)C[C@@H](Nc3cc(N4CCOCC4)ccn3)C2)c1` [I-275]: the Kd is > 200 µM.

Regarding `NCCOCCOCCOCCOCC(=O)c1[nH]cc(C(=O)N[C@@H](CC(N)=O)c2cccc(Cl)c2)c1-c1ccccc1F` [I-674], the Kd is < 10 µM.

Regarding `Cc1c(F)ccc(F)c1-c1c(C(=O)N[C@@H](CC(N)=O)c2cccc(Cl)c2)cn(C)c1C(=O)c1ccc(OCCOCCOCCOCCOCCN)cc1` [I-1017], the Kd is < 10 µM.

Consider `O=C(C[C@H](NC(=O)c1cn[nH]c1-c1ccccc1F)c1cccc(Cl)c1)NCc1ccccc1` [I-84], for which the Kd was in the range of 10 to 100 µM.

In the case of `NC(=O)C[C@@]1(NC(=O)c2c[nH]nc2-c2ccccc2F)CCc2cc(Cl)ccc21` [I-242], the Kd was > 200 µM.

In the case of `Fc1cccc(N2CCC[C@@H](N(c3ccccc3)c3cc(N4CCOCC4)ccn3)C2)c1` [I-273], the Kd is > 200 µM.

On to `Fc1cccc(N2CC(Nc3cc(N4CCOCC4)ncn3)C2)c1` [I-218], for which the dissociation constant Kd is > 200 µM.

Turning to `NC(=O)C[C@H](NC(=O)CNC1=Nc2ccccc2CC1)c1cccc(Cl)c1` [I-440], the Kd was > 200 µM.

Consider `NCCNc1cnc(N2CCCCC2)nc1N[C@@H]1CCCN(c2cccc(F)c2)C1` [I-1014], for which the Kd lay in the range of 10 to 100 µM.

On to `CNC(=O)C[C@H](NC(=O)c1c[nH]c(C(=O)COCCOCCOCCOCCOCCN)c1-c1c(F)ccc(F)c1C)c1cccc(Cl)c1` [I-820], for which the Kd is < 10 µM.

On to `Oc1ccc(N2CCC[C@@H](Nc3cc(N4CCCCC4)ccn3)C2)cc1F` [I-716], for which the Kd lay within 10 to 100 µM.

For `Fc1cccc(N2CCC[C@@H](N(Cc3ccccc3)c3cc(N4CCOCC4)ncn3)C2)c1` [I-387], the Kd was > 200 µM.

Regarding `C=CC(=O)NCCCN1CCN(c2ccnc(N3CC[C@@H]4[C@H]3CCCN4c3cccc(F)c3)c2)CC1` [I-846], the Kd was in the range of 10 to 100 µM.

Consider `NC(=O)C[C@H](NC(=O)c1c[nH]nc1-c1ccc2[nH]cnc2c1)c1cccc(Cl)c1` [I-356], for which the Kd was 10 to 100 µM.

`C=CC(=O)NCCC1CCCN(c2ccnc(N[C@@H]3CCCN(c4cccc(F)c4)C3)c2)C1` (some centres unmarked) [I-664]: the Kd is 10 to 100 µM.

In the case of `OCCC[C@H]1C[C@H]2[C@H](CCCN2c2cccc(F)c2)N1c1cc(N2CCCCC2)ccn1` [I-835], the Kd was > 200 µM.

Consider `c1ccc([C@H]2CCC[C@H](Nc3cc(N4CCCCC4)ccn3)C2)cc1` [I-755], for which the Kd is < 10 µM.

As to `NC(=O)C[C@H](NC(=O)c1cn[nH]c1C1CCOCC1)c1ccccc1` [I-501], the Kd is 10 to 100 µM.

On to `FC[C@@]1(Nc2cc(N3CCOCC3)ccn2)CCCN(c2cccc(F)c2)C1` [I-277], for which the Kd was > 200 µM.

Turning to `Cc1n[nH]c(C(F)(F)F)c1C(=O)N[C@@H](CC(N)=O)c1ccccc1` [I-837], the Kd was > 200 µM.

As for `C=CC(=O)N1CCCC(c2[nH]ncc2C(=O)N[C@@H](CC(N)=O)c2cccc(Cl)c2)C1` (some centres unmarked) [I-469], the Kd is > 200 µM.

Turning to `Cc1c(F)ccc(F)c1-c1[nH]ncc1C(=O)N[C@@H](CC(=O)N1CCNCC1)c1cccc(Cl)c1` [I-885], the Kd is < 10 µM.

In the case of `CN(c1cccc(F)c1)[C@@H]1CCN(c2cc(N3CCCCC3)ccn2)C1` [I-673], the Kd was < 10 µM.

In the case of `COC(=O)c1cc(-c2cccc(N3CCC[C@@H](Nc4cc(N5CCOCC5)ccn4)C3)c2)on1` [I-785], the Kd is > 200 µM.

With `OCc1cnc2ccc(N3CCC[C@@H](Nc4cc(N5CCOCC5)ccn4)C3)nn12` [I-696], the dissociation constant Kd was in the range of 10 to 100 µM.

With `NC(=O)C[C@H](NC(=O)c1n[nH]c2c1CNCC2)c1cccc(Cl)c1` [I-298], the Kd was > 200 µM.

In the case of `COc1ccc(N2CCC[C@@H](Nc3cncc(N4CCOCC4)c3)C2)cc1` [I-551], the Kd is > 200 µM.

On to `Cc1cn2cc(N3CCC[C@@H](Nc4cc(N5CCOCC5)ccn4)C3)ccc2n1` [I-763], for which the Kd lay in the range of 10 to 100 µM.

For `NC(=O)C[C@](NC(=O)c1c[nH]nc1-c1ccccc1F)(c1cccc(Cl)c1)C1CC1` [I-254], the Kd is > 200 µM.

For the compound `OC1CCCN(c2ccnc(N[C@@H]3CCCN(c4cccc(F)c4)C3)c2)C1` (some centres unmarked) [I-701], the Kd was < 10 µM.

Turning to `Cc1c(F)ccc(F)c1-c1c(C(=O)N[C@@H](CC(N)=O)c2cccc(Cl)c2)cn(C)c1C(=O)c1ccc(C#CCOC2CCNCC2)cc1` [I-1003], the Kd was < 10 µM.

In the case of `COCCc1ccc(F)c(-c2[nH]ncc2C(=O)N[C@@H](CC(N)=O)c2cccc(Cl)c2)c1` [I-250], the Kd is 10 to 100 µM.

With `Fc1cccc(N2CCC[C@@H]3[C@H]2CCN3c2cc(N3CC4CC(C4)C3)ccn2)c1` [I-623], the Kd is < 10 µM.

Take `C=CC(=O)NC1CCCN(c2ccnc(N[C@@H]3CCCN(c4cccc(F)c4)C3)c2)C1` (some centres unmarked) [I-454]: the Kd lay in the range of 100 to 200 µM.

For the compound `Fc1cccc(N2CCC[C@@H](n3cnc4nccc(N5CCOCC5)c43)C2)c1` [I-494], the Kd is > 200 µM.

In the case of `NC(=O)C[C@H](NC(=O)c1c[nH]nc1-c1cccc2ccnn12)c1cccc(Cl)c1` [I-236], the dissociation constant Kd was > 200 µM.

Take `COCc1ccc(F)c(-c2[nH]ncc2C(=O)N[C@@H](CC(N)=O)c2cccc(Cl)c2)c1` [I-248]: the Kd lay in the range of 10 to 100 µM.

For `NC(=O)C[C@H](NC(=O)c1cn[nH]c1C1CCOCC1)c1cccc(Cl)c1` [I-344], the Kd was < 10 µM.

On to `O[C@@H]1CC[C@@H](Nc2cc(N3CCCCC3)ccn2)C[C@H]1c1ccccc1` [I-985], for which the Kd lay within 10 to 100 µM.

As to `Fc1cccc(N2CCC[C@@H](Nc3cc(C4=CCOCC4)[nH]n3)C2)c1` [I-609], the Kd is > 200 µM.

For the compound `CCCN1CCN(c2ccnc(NC3CCCN(c4cccc(F)c4)C3)n2)CC1` (centres unmarked) [I-25], the Kd is > 200 µM.

On to `c1ccc2ncc(N3CCC[C@@H](Nc4nccc(N5CCOCC5)n4)C3)cc2c1` [I-46], for which the Kd is > 200 µM.

Regarding `NC(=O)C[C@H](NC(=O)c1cnc(N)cc1-c1ccccc1F)c1cccc(Cl)c1` [I-589], the Kd was > 200 µM.

For `c1cc(N2CCOCC2)cc(N[C@@H]2CCCN(c3ccc(C4CC4)cc3)C2)n1` [I-507], the Kd was > 200 µM.

Regarding `Fc1cccc(N2CCCC3(C2)CN(c2cc(N4CCOCC4)ccn2)C3)c1` [I-221], the Kd is > 200 µM.

As for `c1cnc2c(N3CCC[C@@H](Nc4cc(N5CCOCC5)ccn4)C3)cnn2c1` [I-417], the Kd was > 200 µM.

Consider `Fc1cccc(N2CCC3CCCc4ncc(N5CCOCC5)cc4NC3C2)c1` (centres unmarked) [I-228], for which the Kd was > 200 µM.

`C=CC(=O)N1CCN(c2ccnc(N[C@@H]3CCCN(c4cccc(F)c4)C3)c2)CC1C(F)(F)F` (some centres unmarked) [I-655]: the Kd is > 200 µM.

As to `O=c1[nH]cc(N2CCOCC2)cc1N[C@@H]1CCCN(c2cccc(F)c2)C1` [I-533], the Kd is < 10 µM.

With `Cc1cc(N2CCC[C@@H](Nc3cc(N4CCOCC4)ccn3)C2)cnc1OC(C)C` [I-428], the Kd is > 200 µM.

In the case of `COCCC1C2CCC1CN(c1ccnc(N[C@@H]3CCCN(c4cccc(F)c4)C3)c1)C2` (some centres unmarked) [I-654], the Kd was < 10 µM.

As for `Cc1c(F)ccc(F)c1-c1[nH]ncc1C(=O)N[C@H](c1cccc(Cl)c1)[C@@H]1CCOC1` [I-967], the Kd is 10 to 100 µM.

As for `NC(=O)C[C@H](NC(=O)c1c[nH]c(-c2ccc[nH]2)c1-c1ccccc1F)c1cccc(Cl)c1` [I-600], the Kd is < 10 µM.

Turning to `COc1ccc([C@H](CC(N)=O)NC(=O)c2cn[nH]c2-c2ccccc2F)cc1` [I-136], the Kd lay in the range of 100 to 200 µM.

With `C=CC(=O)N1CC[C@H](N(C)c2ccnc(N[C@@H]3CCCN(c4cccc(F)c4)C3)c2)C1` [I-477], the Kd was > 200 µM.

As for `Cc1cccc(F)c1-c1c(C(=O)N[C@@H](CC(N)=O)c2cccc(Cl)c2)c[nH]c1C(=O)c1cccc(N2CCCCC2)c1` [I-700], the Kd is < 10 µM.

With `c1ccc(N2CCC[C@@H]3[C@H]2CCN3c2cc(N3CC4CC(C4)C3)ccn2)cc1` [I-708], the Kd is < 10 µM.
